{
  "source": "patent US12138301B2",
  "about": "“Compounds including a mutant KRAS sequence and a lipid and uses thereof” (Elicio Therapeutics, Inc., priority 2018, dated 2024)",
  "key": {"[1]": {"test_system": "PBMCs/Splenocytes", "experiment": "ICS for IFNγ on PBMCs and ELISpot for IFNγ on splenocytes of immunized HLA-A2.1 transgenic mice (Example 3)", "format": "in vivo, B6 HLA-A2.1 Tg mice", "details": "peptide 20 μg s.c., two boosters at two-week intervals, HLA-A2.1 Tg mice", "description": "B6 mice transgenic for the human HLA gene, A2.1, were immunized either with the soluble or amphiphile-conjugated forms of the KRas G12D antigen, as well as adjuvant (CpG or aCpG). The A2.1 allele is known to mount responses to the KRas peptides in humans.\nThe experimental design included the following 4 groups of B6 HLA-A2.1 Tg mice immunized with the listed compounds (n=5 for each group): • 1. KRas wild-type+CpG • 2. KRas 12D+CpG • 3. aKRas 12D+aCpG • 4. No immunization\n(§1) The adjuvant as well as peptide stock solutions were dissolved in H2O. Final injections were diluted with 1×PBS.\nThe aKRas peptides used were 18mer sequences of mutant sequences with a G12D substitution (amino acids 4-21 of wild-type 4 […] (SEQ ID NO:9)). 20 μg in 100 μl were used for each injection.\n(§2) The aCpG sequence used was the CpG1826 sequence (5′-[…]-3′; SEQ ID NO:10) with two guanines added at the 5′ end (5′-gg […]-3′; SEQ ID NO:11) at a concentration of 5 nmol for each 100 μl injection.\nThe vaccine was administered subcutaneously to female mice bilaterally at the tail base at 50 μl per side. Two booster doses were given in two-week intervals.\nIntracellular cytokine staining (ICS) analysis for IFNγ on peripheral blood mononuclear cells (PBMCs) and ELISpot analysis for IFNγ on splenocytes was performed, using standard protocols, 7 days after the second and third booster dose, respectively.\nPBMCs/Splenocytes (10^6 cells/well and 2×10^6 cells/well) were activated with 5 μg/well of either SEQ ID NO:1 or one of SEQ ID NOS:12-20 as shown below:\nSpecific mutant peptides are given only to the mice that were immunized with the corresponding 18mer."}, "[2]": {"test_system": "splenocytes", "experiment": "ELISpot analysis for IFNγ on splenocytes of immunized mice (Example 1, KRas G12D)", "format": "in vivo, C57BL/6 mice", "details": "splenocytes activated with G12D 18mer 5 μg/well", "method": "The efficacy of soluble-KRas (KRas) or amphiphile-KRas (aKRas) (FIG. 6) mutant sequences and an amphiphile-CpG adjuvant (aCpG) to elicit an immune response was determined.\nThe experimental design included the following 4 groups of C57BL16 mice immunized with the listed compounds (n=5 for each group): • 1. KRas G12D+aCpG • 2. aKRas G12D+aCpG • 3. KRas G12D+pIC • 4. No immunization\nPolyIC (pIC) was used as a benchmark adjuvant control.\nThe adjuvant, as well as peptide stock, solutions were dissolved in H2O. Final injections were diluted with 1×PBS (phosphate buffered saline).\nThe aKRas peptides used were 18mer sequences of mutant sequences with a G12D substitution (amino acids 4-21 of wild-type→YKLVVVGAGGVGKSALTI (SEQ ID NO:9)). 20 μg in 100 μl were used for each injection.\nThe aCpG sequence used was the CpG1826 sequence (5′-[…]-3′; SEQ ID NO:10) with two guanines added at the 5′ end (5′-gg […]-3′; SEQ ID NO:11) at a concentration of 5 nmol for each 100 μl injection. CpG1826 is an optimal mouse sequence while CpG7909 is optimal for humans and poorly active in mice. CpG1826 and CpG7909 are in the same CpG class (class B) and generally have similar activity profiles in their respective species.\n50 μg of pIC were used for each 100 μl injection.\nPrimer immunizations were given subcutaneously (s.c.) into the tail base (day 0) with one booster dose after 2 weeks (day 14). ELISpot analysis for IFNγ on splenocytes was performed, using standard protocols, […] after booster dose administration (day 21). Splenocytes (10^6 cells/well) were activated with 5 μg/well of G12D sequence 18mer (aa4-21)→YKLVVVGADGVGKSALTI (SEQ ID NO:1)."}, "[3]": {"test_system": "KRAS-specific splenic T-cells", "experiment": "Summary of mouse immunogenicity studies: KRAS-specific splenic T-cells by ELISPOT and cytokine bead array (Example 5)", "format": "in vivo, C57BL/6 mouse", "details": "subcutaneous administration; identified by ELISPOT and cytokine bead array"}, "[4]": {"test_system": "splenocytes", "experiment": "ELISpot analysis for IFNγ on splenocytes, higher antigen concentration and bi-weekly or weekly dosing (Example 4)", "format": "in vivo, C57BL/6 mice", "details": "peptide 50 μg s.c.; for KRas-specific CD8+ T-cell response (9mers): restimulation with 9mers; for CD8+ or CD4+ T-cell response (18mer): restimulation with 18mer", "method": "The concentration of antigen was increased from 20 μg to 50 μg and bi-weekly (bw) or weekly (w) dose intervals were tested.\nThe experimental design included the following 5 groups of C57BL/6 mice immunized with the listed compounds (n=5 for each group): • 1. KRas 12D+CpG1826 (bw) • 2. KRas 12D+CpG1826 (w) • 3. aKRas 12D+aCpG1826 (bw) • 4. aKRas 12D+aCpG1826 (w) • 5. No immunization\nas §1\n50 μg in 100 μl were used for each injection.\nas §2\nPrimer immunizations were given subcutaneously (s.c.) into the tail base with one booster dose after 2 weeks.\nELISpot analysis for IFNγ, and CBA (cytometric bead array) analysis for IL6, I-10, IL12, TNFα, IFNγ, and MCP1 was performed on splenocytes, using standard protocols, 7 days after booster dose administration.\nSpecific mutant peptides were given only to the mice that were immunized with the corresponding 18mer.\nSeparate plates were prepared for either short (9mer and 10mer) or long (17mer and 18mer) peptide stimulations. Cells from “No immunization” control mice were stimulated with all stimuli."}, "[5]": {"test_system": "splenocytes", "experiment": "ELISpot analysis for IFNγ on splenocytes of immunized mice (Example 2, KRas G12R and G12V)", "format": "in vivo, C57BL/6 mice", "details": "in combination with aCpG 5 nmol; peptide 20 μg s.c. day 0 + booster d14; splenocytes activated with G12V or G12R 18mer 5 μg/well", "method": "as §2"}, "[6]": {"details": "in combination with aCpG 5 nmol"}, "[7]": {"details": "in combination with aCpG 5 nmol, peptide 20 μg s.c. tail base day 0 + booster day 14"}},
  "note": "Entries after “also recorded” stand apart in the source; their conditions may differ.",
  "data": [
    {"substance": "DSPE-amido-dPEG24-amido-dPEG24-CYKLVVVGADGVGKSALTI [aKRas G12D]", "values": [
      {"measurement": "KRas-specific CD8+ T-cell response", "setting": "[1]; [6]", "value": "KRas-specific CD8′ T-cell response; also recorded: KRas-specific CD8^+ T-cell response"},
      {"measurement": "activation of splenocytes (ELISpot for IFNγ)", "setting": "[2]; [7]", "value": "activated splenocytes"},
      {"measurement": "inducing KRAS-specific splenic T-cells in mice", "setting": "[3]", "value": "effective"},
      {"measurement": "KRas-specific CD8+ T-cell response (9mers)", "setting": "[4]; [6]", "value": "KRas-specific CD8^+ T-cell response"},
      {"measurement": "CD8+ or CD4+ T-cell response (18mer)", "setting": "[4]; [6]", "value": "CD8′ or CD4*T-cell response; also recorded: CD8^+ or CD4^+ T-cell response"}
    ]},
    {"substance": "YKLVVVGADGVGKSALTI [soluble KRas G12D]", "values": [
      {"measurement": "KRas-specific CD8+ T-cell response", "setting": "[1]; in combination with CpG", "value": "not"},
      {"measurement": "activation of splenocytes (ELISpot for IFNγ)", "setting": "[2]; [7]", "value": "did not"},
      {"measurement": "activation of splenocytes (ELISpot for IFNγ)", "setting": "[2]; in combination with pIC 50 μg, peptide 20 μg s.c. day 0 + booster day 14", "value": "did not"},
      {"measurement": "KRas-specific CD8+ T-cell response (9mers)", "setting": "[4]; in combination with CpG", "value": "not"},
      {"measurement": "CD8+ or CD4+ T-cell response (18mer)", "setting": "[4]; in combination with CpG", "value": "not"}
    ]},
    {"substance": "YKLVVVGAGGVGKSALTI [soluble wild-type KRas]", "values": [
      {"measurement": "KRas-specific CD8+ T-cell response", "setting": "[1]; in combination with CpG", "value": "not"}
    ]},
    {"substance": "YKLVVVGARGVGKSALTI [soluble KRas G12R]", "values": [
      {"measurement": "activation of splenocytes (ELISpot for IFNγ)", "setting": "[5]", "value": "did not"}
    ]},
    {"substance": "YKLVVVGAVGVGKSALTI [soluble KRas G12V]", "values": [
      {"measurement": "activation of splenocytes (ELISpot for IFNγ)", "setting": "[5]", "value": "did not"}
    ]}
  ]
}
